Tests used:
RORγ-LBD = target: T1, RORγ-LBD (Homo sapiens, UniProt P51449); test: RORγ-Ligand Binding Domain (LBD) TR-FRET Assay; type: biochemical;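 on TR-FRET Assay Max Response: 665/615 nm ratio relative to signal without ursolic acid or compound set at 100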
T1 construct: made in house; host or cells: SF9 cells (baculovirus)
T1 sequence (P51449 269-508 limits assumed): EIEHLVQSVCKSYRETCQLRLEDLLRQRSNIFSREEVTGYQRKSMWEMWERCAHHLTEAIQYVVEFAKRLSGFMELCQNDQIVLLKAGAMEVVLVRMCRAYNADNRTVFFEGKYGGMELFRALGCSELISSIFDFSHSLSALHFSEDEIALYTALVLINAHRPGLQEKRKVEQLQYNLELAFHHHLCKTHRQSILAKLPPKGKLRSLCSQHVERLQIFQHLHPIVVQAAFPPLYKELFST
In short: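 His-tagged RORγ-LBD from SF9 baculovirus lysate, ~3 nM final, in 50 mM Tris pH 7.0, 50 mM KCl, 1 mM EDTA, 0.1 mM DTT, 0.01% BSA. Biotinylated SRC1 LXXLL peptide at 200 nM final with 2 μM ursolic acid; TR-FRET read-out, 1% DMSO final.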

Gal4-RORγ-LBD = target: T2, Gal4-RORγ-LBD (Homo sapiens, UniProt P51449); test: Gal4-RORγ Luciferase Reporter Assay in HEK-293T Cells; type: cell-based; conditions: HEK-293 cells
T2 construct: expressed in transfected cells; host or cells: HEK-293 cells (pcDNA3.1neo plasmid)
T2 sequence (P51449 269-508 limits assumed): T1 sequence (P51449 269-508 limits assumed)
In short: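 HEK-293 cells were transiently co-transfected with Gal4-RORγ-LBD and pGL4.31 Gal4-luciferase, with ursolic acid added at 2 μM final. Compounds were incubated overnight at 37° C. in 0.2% DMSO and luminescence read with One-Glo. Max Response is the upper plateau of a 4-parameter logistic fit, with signal lacking ursolic acid or compound set to 100.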

[1] = luciferase reporter, with 2 μM ursolic acid

| EC50 (RORγ-LBD) [nM] | EC50 (Gal4-RORγ-LBD; [1]) [nM] | EC50 (Gal4-RORγ-LBD; 2 μM ursolic acid) [nM] | SMILES | TR-FRET Assay Max Response (RORγ-LBD) | Gal4-RORγ Assay Max Response (Gal4-RORγ-LBD; [1]) | Gal4-RORγ Assay Max Response (Gal4-RORγ-LBD; 2 μM ursolic acid) |
| --- | --- | --- | --- | --- | --- | --- |
| < 500 | < 500 | – | O=c1[nH]nc(CC[C@H]2CN(S(=O)(=O)c3cccc(C(F)(F)F)c3)c3cc(-c4cncc(C(F)(F)F)c4)ccc3O2)o1 [Compound 28C, (S)-5-(2-(4-((3-(trifluoromethyl)-phenyl)sulfonyl)-6-(5-(trifluoromethyl)pyridin-3-yl)-3,4-dihydro-2H-benzo[b][1,4]oxazin-2-yl)ethyl)-1,3,4-oxadiazol-2(3H)-one] | **** (The symbol “****” indicates a value greater than 200) | * (The symbol “*” indicates a value in the range of 25 to 90) | – |
| < 500 | 500 to 5000 | – | COc1cc(-c2ccc3c(c2)N(S(=O)(=O)c2cccc(C(F)(F)F)c2)C[C@H](CCC(=O)O)O3)ccn1 [Compound 4D, (S)-3-(6-(2-methoxypyridin-4-yl)-4-((3-(trifluoromethyl)-phenyl)sulfonyl)-3,4-dihydro-2H-benzo[b][1,4]oxazin-2-yl)propanoic acid] | *** (The symbol “***” indicates a value in the range of greater than 150 to 200) | * (The symbol “*” indicates a value in the range of 25 to 90) | – |
| < 500 | – | < 500 | CC(C)(C[C@H]1CN(S(=O)(=O)c2cccc(C(F)(F)F)c2)c2cc(-c3cccc(Cl)c3)ccc2O1)C(=O)O [Compound 32W, (S)-3-(6-(3-chlorophenyl)-4-((3-(trifluoromethyl)phenyl)sulfonyl)-3,4-dihydro-2H-benzo[b][1,4]-oxazin-2-yl)-2,2-dimethyl-propanoic acid] | *** (The symbol “***” indicates a value in the range of greater than 150 to 200) | – | ** (The symbol “**” indicates a value in the range of greater than 90 to 150) |
| < 500 | – | < 500 | Cc1cc(Cl)cc(-c2ccc3c(c2)N(S(=O)(=O)c2cccc(C(F)(F)F)c2)C[C@H](CC(C)(C)C(=O)O)O3)c1 [Compound 32BB, (S)-3-(6-(3-chloro-5-methyl-phenyl)-4-((3-(trifluoromethyl)-phenyl)sulfonyl)-3,4-dihydro-2H-benzo[b][1,4]oxazin-2-yl)-2,2-dimethylpropanoic acid] | * (The symbol “*” indicates a value in the range of 25 to 90) | – | ** (The symbol “**” indicates a value in the range of greater than 90 to 150) |
| < 500 | – | < 500 | Cc1ccc(C)c(-c2ccc3c(c2)N(S(=O)(=O)c2cccc(C(F)(F)F)c2)C[C@H](CC(C)(C)C(=O)O)O3)c1 [Compound 32AT, (S)-3-(6-(2,5-dimethylphenyl)-4-((3-(trifluoromethyl)phenyl)-sulfonyl)-3,4-dihydro-2H-benzo[b][1,4]oxazin-2-yl)-2,2-dimethylpropanoic acid] | ** (The symbol “**” indicates a value in the range of greater than 90 to 150) | – | ** (The symbol “**” indicates a value in the range of greater than 90 to 150) |
| < 500 | < 500 | – | CNS(=O)(=O)NC[C@H]1CN(S(=O)(=O)c2cccc(C(F)(F)F)c2)c2cc(-c3cc(F)ccc3F)ccc2O1 [Compound 44, ([[(2S)-6-(2,5-difluorophenyl)-4-[[3-(trifluoromethyl)benzene]sulfonyl]-3,4-dihydro-2H-1,4-benzoxazin-2-yl]methyl]sulfamoyl)(methyl)amine] | **** (The symbol “****” indicates a value greater than 200) | ** (The symbol “**” indicates a value in the range of greater than 90 to 150) | – |
| < 500 | – | < 500 | O=C(NC[C@H]1CN(S(=O)(=O)c2cccc(C(F)(F)F)c2)c2cc(-c3cc(F)ccc3F)ccc2O1)N1CCOCC1 [Compound 16, (S)—N-((6-(2,5-difluorophenyl)-4-((3-(trifluoromethyl)phenyl)sulfonyl)-3,4-dihydro-2H-benzo[b][1,4]oxazin-2-yl)methyl)morpholine-4-carboxamide] | **** (The symbol “****” indicates a value greater than 200) | – | ** (The symbol “**” indicates a value in the range of greater than 90 to 150) |
| < 500 | – | < 500 | O=C(O)CC[C@H]1CN(S(=O)(=O)c2cccc(C(F)(F)F)c2)c2cc(-c3cc(F)cc(F)c3)cc(F)c2O1 [Compound 22K, (S)-3-(6-(3,5-difluorophenyl)-8-fluoro-4-((3-(trifluoromethyl)-phenyl)sulfonyl)-3,4-dihydro-2H-benzo[b][1,4]oxazin-2-yl)propanoic acid] | *** (The symbol “***” indicates a value in the range of greater than 150 to 200) | – | ** (The symbol “**” indicates a value in the range of greater than 90 to 150) |
| < 500 | < 500 | – | C[C@H](O)C(=O)NC[C@H]1CN(S(=O)(=O)c2cccc(C(F)(F)F)c2)c2cc(-c3cc(F)ccc3F)ccc2O1 [Compound 30AE, (S)-N-(((S)-6-(2,5-difluoro-phenyl)-4-((3-(trifluoromethyl)-phenyl)sulfonyl)-3,4-dihydro-2H-benzo[b][1,4]oxazin-2-yl)-methyl)-2-hydroxypropanamide] | *** (The symbol “***” indicates a value in the range of greater than 150 to 200) | ** (The symbol “**” indicates a value in the range of greater than 90 to 150) | – |
| < 500 | < 500 | – | O=S(=O)(c1cccc(C(F)(F)F)c1)N1C[C@H](CCCO)Oc2ccc(-c3cc(F)cc(F)c3)cc21 [Compound 34C, (S)-3-(6-(3,5-difluorophenyl)-4-((3-(trifluoromethyl)phenyl)-sulfonyl)-3,4-dihydro-2H-benzo[b][1,4]oxazin-2-yl)propan-1-ol] | **** (The symbol “****” indicates a value greater than 200) | ** (The symbol “**” indicates a value in the range of greater than 90 to 150) | – |
| < 500 | – | < 500 | COc1cc(S(=O)(=O)N2C[C@H](CNS(=O)(=O)N3CC[C@H](O)C3)Oc3ccc(-c4cc(F)ccc4F)cc32)ccc1F [Compound 45E, (S)-N-(((S)-6-(2,5-difluoro-phenyl)-4-((4-fluoro-3-methoxyphenyl)sulfonyl)-3,4-dihydro-2H-benzo[b][1,4]oxazin-2-yl)methyl)-3-hydroxy-pyrrolidine-1-sulfonamide] | *** (The symbol “***” indicates a value in the range of greater than 150 to 200) | – | ** (The symbol “**” indicates a value in the range of greater than 90 to 150) |
| < 500 | < 500 | – | CC(C)(O)C(=O)NCC[C@H]1CN(S(=O)(=O)c2cccc(C(F)(F)F)c2)c2cc(-c3cncc(C(F)(F)F)c3)ccc2O1 [Compound 30C, (S)-2-hydroxy-2-methyl-N-(2-(4-((3-(trifluoromethyl)-phenyl)sulfonyl)-6-(5-(trifluoromethyl)pyridin-3-yl)-3,4-dihydro-2H-benzo[b][1,4]oxazin-2-yl)ethyl)propanamide] | **** (The symbol “****” indicates a value greater than 200) | * (The symbol “*” indicates a value in the range of 25 to 90) | – |
| < 500 | – | < 500 | CC(C)(C[C@H]1CN(S(=O)(=O)c2cccc(C(F)(F)F)c2)c2cc(-c3cc(F)cc(Cl)c3)ccc2O1)C(=O)O [Compound 32Y, (S)-3-(6-(3-chloro-5-fluoro-phenyl)-4-((3-(trifluoromethyl)-phenyl)sulfonyl)-3,4-dihydro-2H-benzo[b][1,4]oxazin-2-yl)-2,2-dimethylpropanoic acid] | *** (The symbol “***” indicates a value in the range of greater than 150 to 200) | – | ** (The symbol “**” indicates a value in the range of greater than 90 to 150) |
| < 500 | < 500 | – | O=C(NC[C@H]1CN(S(=O)(=O)c2cccc(C(F)(F)F)c2)c2cc(-c3cc(F)ccc3F)ccc2O1)C1CC1 [Compound 30Y, (S)-N-((6-(2,5-difluorophenyl)-4-((3-(trifluoromethyl)phenyl)-sulfonyl)-3,4-dihydro-2H-benzo[b][1,4]oxazin-2-yl)-methyl)cyclopropane-carboxamide] | **** (The symbol “****” indicates a value greater than 200) | ** (The symbol “**” indicates a value in the range of greater than 90 to 150) | – |
| < 500 | < 500 | – | CC(C)(C[C@H]1CN(S(=O)(=O)c2cccc(C(F)(F)F)c2)c2cc(-c3cccc(OC(F)F)c3)ccc2O1)C(=O)O [Compound 32G, (S)-3-(6-(3-(difluoromethoxy)-phenyl)-4-((3-(trifluoromethyl)-phenyl)sulfonyl)-3,4-dihydro-2H-benzo[b][1,4]oxazin-2-yl)-2,2-dimethylpropanoic acid] | *** (The symbol “***” indicates a value in the range of greater than 150 to 200) | ** (The symbol “**” indicates a value in the range of greater than 90 to 150) | – |

— patent publication US10611740B2, “Aryl dihydro-2H-benzo[b][1,4]oxazine sulfonamide and related compounds for use as agonists of RORγ and the treatment of disease” (Lycera Corporation, priority 2015, dated 2020)
